Results published in patent US5244795A, “Processes for preparing cholesterol lowering compounds” (Merck & Co., Inc., priority 1992, dated 1993).
Values after ≈ are worked out from the molar mass of the structure shown.

Tests used:
Assay type in all cases: cell-based
Candida albicans = assay: Microdilution broth assay; details: 35° C., 24 to 48 hours
Protocol: (§1) The broad spectrum antifungal activity of the present compounds was further determined by broth dilution methods. The compounds are particularly active towards filamentous fungi and yeasts including Candida albicans and Crypt. neoformans. The sensitivity of filamentous fungi and yeasts was determined using inhibitor dilution assays in microtiter format. A standardized spore suspension for testing the filamentous fungi was prepared by inoculating sterile distilled water with spores such that 1.5-7.5×10^3 colony forming units were added per well. The microtiter wells were filled with 75 μl of yeast nitrogen base containing 1% Dextrose medium (YNB/D) containing compound. Fifty μl of inoculated YNB/D medium was then added to the wells.
(§2) The sensitivity of yeasts was determined by inoculating sterile distilled water with aliquots of a 4-hour yeast culture grown in Yeast Morphology (YM) media at 35° C. and diluting in YNB/D to yield a final concentration of 1.5-7.5×10^3 colony forming units/well. Seventy-five μl of inoculated media was added per well. To test the sensitivity of yeast, compound was solubilized in 10 percent aqueous DMSO at 2.56 mg/ml. The compound was diluted serially in YNB/D from 128 to 0.06 μg/ml. The wells were filled with 75 μl of drug containing media. […] Representative of the antifungal activity are the minimum inhibitory concentration and minimum fungicidal concentration data shown below in Table II: […]

Aspergillus fumigatus = assay: Microdilution broth assay; details: strain MF 4839, 35° C., 48-72 hours, read-out: MIC (minimum inhibitory concentration)
Protocol: as §1, §2

Candida guilliermondii = assay: Microdilution broth assay; details: Meyerozyma guilliermondii; strain MY 1019; 35° C., 24 to 48 hours; read-out: MIC (minimum inhibitory concentration)
Protocol: as §1, §2

T. mentagrophytes = assay: Microdilution broth assay; details: Trichophyton mentagrophytes; strain MF 4864; 35° C., 48-72 hours; read-out: MIC (minimum inhibitory concentration)
Protocol: as §1, §2

Candida tropicalis = assay: Microdilution broth assay; details: strain MY 1012, 35° C., 24 to 48 hours, read-out: MIC (minimum inhibitory concentration)
Protocol: as §1, §2

Saccharomyces cerevisiae = assay: Microdilution broth assay; details: strain MY 1976, 35° C., 24 to 48 hours, read-out: MIC (minimum inhibitory concentration)
Protocol: as §1, §2

Cryptococcus neoformans = assay: Microdilution broth assay; details: strain MY 1051, 35° C., 24 to 48 hours, read-out: MIC (minimum inhibitory concentration)
Protocol: as §1, §2

Trichoderma lignorum = assay: FISP disc diffusion assay; design: key: F: clear zone, fuzzy edges; S: slightly hazy zone (some growth observed throughout zone); H: hazy zone (considerable growth observed throughout zone); V: very hazy zone (zone of inhibition is barely discernable); R: zone displays a ring of resistant growth; no qualifier: clear zone throughout, sharp edges; details: 250 μg/ml in CH2Cl2
Excerpt: (§3) The FISP assay employs disc diffusion susceptibility testing methods to generate a spectrum of activity against a panel of representative yeasts, filamentous fungi and bacteria.
(§4) The filamentous fungi used in the assay were Penicillium sp. Aspergillus niger, Trichoderma sp., Phoma sp., Trichoderma lignorum, Fusarium oxysporum, Ustilago maydis, Ceratocystis ulmi, Alternaria soloni, Verticillium serrae, Botrytis allii, Scopulariopsis communis, Cephalosporium sp., Cercospora beticola, Rhizomucor miehei, Aspergillus flavus and Aspergillus fumigatus.
(§5) For carrying out the assay, seeded assay plates are prepared in the following manner according to the type of assay strain.
(§6) Inocula for filamentous fungi are prepared by scraping the surface of stock plates maintained on potato dextrose agar with a moistened sterile dacron swab. The spores and mycelia are then suspended in 10 milliliters of sterile potato dextrose broth and adjusted to 65 percent transmission at 660 nm.
(§7) Assay plates for the yeasts and filamentous fungi are prepared by diluting the inoculum into appropriate molten agar medium, cooled to 45° C. to obtain a final concentration of 4 percent.
(§8) The seeded agar media thus prepared are dispensed into petri dishes for assays (11 ml per dish).
(§9) The samples to be tested for production of antifungal agent are applied to 6.2 mm filter paper discs (25 μl/disc) and air dried at 24° C. When the sample to be tested is crude broth, it may be centrifuged prior to application. The discs bearing the material to be tested are then applied employing sterile conditions to the seeded assay plates. The assay plates are then incubated at either 28° C. or 37° C. for 24 hours. In one of the assays for Bacillus subtilis, the sample is applied to a disc previously impregnated with 4M potassium chloride at 25 μl/disc and then air dried.
(§10) Following incubation, the inhibition zones are measured and recorded. The measurements are made from the extreme edge where growth differs from the background zone. The zones are noted as to appearance as fuzzy edge and clear center, hazy throughout, slightly hazy, very hazy or ringed.
(§11) FISP data is reported as the diameter (in mm.) of the zone of inhibition of growth in agar diffusion assays. The zone is determined by measuring growth that differs from the background lawn. A qualifier is also added to describe the zone quality as listed below: no qualifier: clear zone throughout, sharp edges

Verticillium serrae = assay: FISP disc diffusion assay; design: key: F: clear zone, fuzzy edges; S: slightly hazy zone (some growth observed throughout zone); H: hazy zone (considerable growth observed throughout zone); V: very hazy zone (zone of inhibition is barely discernable); R: zone displays a ring of resistant growth; no qualifier: clear zone throughout, sharp edges; details: 250 μg/ml in CH2Cl2
Excerpt: as §3, §4, §5, §6, §7, §8, §9, §10, §11

Phoma sp. = assay: FISP disc diffusion assay; design: key: F: clear zone, fuzzy edges; S: slightly hazy zone (some growth observed throughout zone); H: hazy zone (considerable growth observed throughout zone); V: very hazy zone (zone of inhibition is barely discernable); R: zone displays a ring of resistant growth; no qualifier: clear zone throughout, sharp edges; details: 250 μg/ml in CH2Cl2
Excerpt: as §3, §4, §5, §6, §7, §8, §9, §10, §11

Penicillium sp. = assay: FISP disc diffusion assay; design: key: F: clear zone, fuzzy edges; S: slightly hazy zone (some growth observed throughout zone); H: hazy zone (considerable growth observed throughout zone); V: very hazy zone (zone of inhibition is barely discernable); R: zone displays a ring of resistant growth; no qualifier: clear zone throughout, sharp edges; details: 250 μg/ml in CH2Cl2
Excerpt: as §3, §4, §5, §6, §7, §8, §9, §10, §11

Trichoderma sp. = assay: FISP disc diffusion assay; design: key: F: clear zone, fuzzy edges; S: slightly hazy zone (some growth observed throughout zone); H: hazy zone (considerable growth observed throughout zone); V: very hazy zone (zone of inhibition is barely discernable); R: zone displays a ring of resistant growth; no qualifier: clear zone throughout, sharp edges; details: 250 μg/ml in CH2Cl2
Excerpt: as §3, §4, §5, §6, §7, §8, §9, §10, §11

Ceratocystis ulmi = assay: FISP disc diffusion assay; design: key: F: clear zone, fuzzy edges; S: slightly hazy zone (some growth observed throughout zone); H: hazy zone (considerable growth observed throughout zone); V: very hazy zone (zone of inhibition is barely discernable); R: zone displays a ring of resistant growth; no qualifier: clear zone throughout, sharp edges; details: 250 μg/ml in CH2Cl2
Excerpt: as §3, §4, §5, §6, §7, §8, §9, §10, §11

In the case of `CC(/C=C/C=C(\C)C(O)C(C)C(=O)O[C@H]1C[C@H](C)C=C2C=C[C@@]3(C)O[C@@H](O)CC(=O)[C@]3(C)[C@H]21)=C\C=C\C(=O)O` (some centres unmarked) [Compound A], the MIC (Candida albicans; Candida albicans, strain MY 1055, read-out: MIC (minimum inhibitory concentration)) is reported as no more than 0.06 µg/mL, the “MIC (minimum inhibitory concentration)” value (Candida albicans; strain MY 1028) is reported as no more than 0.06 µg/mL and the MIC (Aspergillus fumigatus) is reported as 64 µg/mL (≈ 118 µM). For the same compound, the MIC (Candida guilliermondii) was greater than 128 µg/mL, the MIC (T. mentagrophytes) was 32 µg/mL (≈ 59.2 µM) and the MIC (Candida tropicalis) was no more than 0.06 µg/mL. For the same compound, the MIC (Saccharomyces cerevisiae) was greater than 128 µg/mL, the MIC (Cryptococcus neoformans) was 32 µg/mL (≈ 59.2 µM) and the zone quality qualifier (Trichoderma lignorum) was “F”. The zone quality qualifier (Verticillium serrae) was “S”, the zone quality qualifier (Phoma sp.) was “S” and the zone quality qualifier (Penicillium sp.) was “H”. The zone quality qualifier (Trichoderma sp.) was “S” and the zone quality qualifier (Ceratocystis ulmi) was “V”.
